Source: patent US4448970A, “Nargenicin derivatives” (The Upjohn Company, priority 1981, dated 1984)
Read-outs that look alike come from different tables or passages of the source.

Assays:
[1] = tested on: Sarcina lutea; experiment: Standard agar diffusion (12.5 cm disc) test, Sarcina lutea; assay type: cell-based; settings: for zone of inhibition at 1000 µg/mL: Micrococcus luteus
Procedure: (§1) When tested on a standard agar diffusion (12.5 cm disc) test at a concentration of 1 mg/ml compound (45) gave the following zones of inhibition in mm:
(§2) The antibacterial activity of compounds (46), (47), (48), (49) and (50) on a standard agar diffusion (12.5 cm disc) test at a concentration of 1 mg/ml is shown in the following table: […]

[2] = tested on: Staphylococcus aureus; experiment: Standard agar diffusion (12.5 cm disc) test, Staphylococcus aureus; assay type: cell-based; settings: for zone of inhibition at 1000 µg/mL: Staphylococcus aureus
Procedure: as §1, §2

[3] = tested on: S. aureus; experiment: Standard dipped disc agar diffusion assay, S. aureus; assay type: cell-based; settings: Staphylococcus aureus; 1 mg/ml, 0.5 in. disc
Excerpt: In vitro antibacterial testing data, as measured by standard dipped disc agar diffusion assays and Minimum Inhibitory Concentration (MIC) determinations are as follows: […]

[4] = tested on: S. aureus; experiment: S. aureus SQ-Mouse CD50; assay type: in vivo; settings: Staphylococcus aureus, sc
[5] = tested on: S. lutea; experiment: Standard dipped disc agar diffusion assay, S. lutea; assay type: cell-based; settings: Micrococcus luteus
Procedure: In vitro antibacterial testing data, as measured by standard dipped disc agar diffusion assays and Minimum Inhibitory Concentration (MIC) determinations are as follows:
A 0.5 inch disc dipped into a methanol solution of chloride (6b) at a concentration of 1 mg/ml gave a zone of inhibition of 30 mm when spotted on an agar tray seeded with S. lutea.

[6] = tested on: B. fragilis; settings: cited from earlier work
[7] = tested on: Mycobacterium avium; settings: cited from earlier work
[8] = tested on: K. pneumoniae; settings: cited from earlier work
[9] = tested on: C. perfringens; settings: cited from earlier work
[10] = tested on: S. lutea; settings: cited from earlier work
[11] = read-out: Agar Diffusion zone, S. lutea

CON=C(C)C1OC(=O)C(OC)CC2C=CC3C4OC2(C(C)=CC1C)C3C(O)C(C)C4OC(=O)c1ccc[nH]1 (single isomer, unassigned; isomer b) [Compound 50, 18-Deoxy-18-methoximinonargenicin A1, Isomer B]
Zone size, S. lutea ([1]; 1 mg/ml, 12.5 cm disc, table 6): 35 mm | Zone size, S. aureus ([2]; 1 mg/ml, 12.5 cm disc, table 6): 30 mm

COC1CC2C=CC3C4OC2(C(C)=CC(C)C(C(C)O)OC1=O)C3C(O)C(C)C4OC(=O)c1ccc[nH]1 (stereo not shown) [Compound 45, 18-Epinargenicin A1]
zone of inhibition at 1000 µg/mL ([1]; read-out: zones of inhibition, Sarcina lutea): 35 mm | zone of inhibition at 1000 µg/mL ([2]; read-out: zones of inhibition, Staphylococcus aureus): 26 mm

CCC1OC(=O)C(OC)CC2C=CC3C4OC2(C(C)=CC1C)C3C(O)C(C)C4OC(=O)c1ccc[nH]1 (stereo not shown) [Compound 32, 18-Deoxynargenicin A1]
zone of inhibition at 1000 µg/mL [3]: 29 mm | ED50 [4]: > 100 mg/kg | zone of inhibition at 1000 µg/mL [5, 11]: 32 mm

COC1CC2C=CC3C4OC2(C(C)=CC(C)C(C(C)=O)OC1=O)C3C(O)C(C)C4OC(=O)c1ccc[nH]1 (stereo not shown) [Compound 25, 18-Deoxy-18-oxonargenicin A1]
zone of inhibition at 1000 µg/mL [3]: 35 mm | ED50 [4]: 152 mg/kg | zone of inhibition at 1000 µg/mL [5, 11]: 41 mm

COC1CC2C=CC3C4OC2(C(C)=CC(C)C(C(C)N=[N+]=[N-])OC1=O)C3C(O)C(C)C4OC(=O)c1ccc[nH]1 (stereo not shown) [Compound 29, 18-Azido-18-deoxynargenicin A1]
zone of inhibition at 1000 µg/mL [3]: 26 mm | zone of inhibition at 1000 µg/mL [5, 11]: 33 mm

COC1CC2C=CC3C4OC2(C(C)=CC(C)C(C(C)=NNC(N)=O)OC1=O)C3C(O)C(C)C4OC(=O)c1ccc[nH]1 (stereo not shown) [Compound 48, 18-Deoxy-18-semicarbazononargenicin A1]
zone of inhibition at 1000 µg/mL ([1]; read-out: Zone size, S. lutea): 35 mm | zone of inhibition at 1000 µg/mL ([2]; read-out: Zone size, S. aureus): 28 mm

COC1CC2C=CC3C4OC2(C(C)=CC(C)C(C(C)=NO)OC1=O)C3C(O)C(C)C4OC(=O)c1ccc[nH]1 (single isomer, unassigned; isomer a) [Compound 46, 18-Deoxy-18-oximinonargenicin A1, Isomer A]
zone of inhibition at 1000 µg/mL ([1]; read-out: Zone size, S. lutea): 37 mm | zone of inhibition at 1000 µg/mL ([2]; read-out: Zone size, S. aureus): 30 mm

COC1CC2C=CC3C4OC2(C(C)=CC(C)C(C(C)O)OC1=O)C3C(O)C(C)C4O (single isomer, unassigned) [nodusmicin]
activity against B. fragilis [6]: active | activity against Mycobacterium avium [7]: active | activity against K. pneumoniae [8]: active | activity against C. perfringens [9]: active | activity against S. lutea [10]: active

COC1CC2C=CC3C4OC2(C(C)=CC(C)C(C(C)=NO)OC1=O)C3C(O)C(C)C4OC(=O)c1ccc[nH]1 (single isomer, unassigned; isomer b) [Compound 47, 18-Deoxy-18-oximinonargenicin A1, Isomer B]
Zone size, S. lutea ([1]; 1 mg/ml, 12.5 cm disc, table 6): 37 mm | Zone size, S. aureus ([2]; 1 mg/ml, 12.5 cm disc, table 6): 30 mm

CON=C(C)C1OC(=O)C(OC)CC2C=CC3C4OC2(C(C)=CC1C)C3C(O)C(C)C4OC(=O)c1ccc[nH]1 (single isomer, unassigned; isomer a) [Compound 49, 18-Deoxy-18-methoximinonargenicin A1, Isomer A]
zone of inhibition at 1000 µg/mL ([1]; 1 mg/ml, 12.5 cm disc, table 6, read-out: Zone size, S. lutea): 35 mm | zone of inhibition at 1000 µg/mL ([2]; 1 mg/ml, 12.5 cm disc, table 6, read-out: Zone size, S. aureus): 30 mm

COC1CC2C=CC3C4OC2(C(C)=CC(C)C(C(C)Cl)OC1=O)C3C(O)C(C)C4O (stereo not shown) [Compound 35, 18-Chloro-18-deoxynodusmicin]
zone of inhibition at 1000 µg/mL ([5]; 1 mg/ml, 0.5 in. disc, read-out: Agar Diffusion zone, S. lutea): 30 mm | zone of inhibition at 1000 µg/mL ([5]; 0.5 inch disc dipped into methanol solution, 1 mg/ml, read-out: zone of inhibition, S. lutea): 30 mm

COC1CC2C=CC3C4OC2(C(C)=CC(C)C(C(C)O)OC1=O)C3C(O)C(C)C4OC(=O)c1ccc[nH]1 (stereo not shown) [Nargenicin A1, nargenicin A1, reference compound]
ED50 [4]: 17 to 20 mg/kg

COC1CC2C=CC3C4OC2(C(C)=CC(C)C(C(C)Cl)OC1=O)C3C(O)C(C)C4OC(=O)c1ccc[nH]1 (stereo not shown) [Compound 24, 18-Chloro-18-deoxynargenicin A1]
zone of inhibition at 1000 µg/mL [3]: 29 mm | ED50 [4]: 107 mg/kg | zone of inhibition at 1000 µg/mL [5, 11]: 31 mm
